Results published in ChEMBL document CHEMBL4831511, “Fluorovinylsulfones and -Sulfonates as Potent Covalent Reversible Inhibitors of the Trypanosomal Cysteine Protease Rhodesain: Structure-Activity Relationship, Inhibition Mechanism, Metabolism, and In Vivo Studies” (J Med Chem, 2021).
Activity calls are given as the source filed them. The rule behind the calls is not given here.

Assays:
[1] = target: Rhodesain (Trypanosoma brucei rhodesiense) (UniProt Q95PM0); experiment: Reversible inhibition of Trypanosoma brucei rhodesain assessed as fluorescence using Cbz-Phe-Arg-AMC as substrate by fluorometric enzyme assays
Rhodesain (Trypanosoma brucei rhodesiense), sequence (Q95PM0 1-450): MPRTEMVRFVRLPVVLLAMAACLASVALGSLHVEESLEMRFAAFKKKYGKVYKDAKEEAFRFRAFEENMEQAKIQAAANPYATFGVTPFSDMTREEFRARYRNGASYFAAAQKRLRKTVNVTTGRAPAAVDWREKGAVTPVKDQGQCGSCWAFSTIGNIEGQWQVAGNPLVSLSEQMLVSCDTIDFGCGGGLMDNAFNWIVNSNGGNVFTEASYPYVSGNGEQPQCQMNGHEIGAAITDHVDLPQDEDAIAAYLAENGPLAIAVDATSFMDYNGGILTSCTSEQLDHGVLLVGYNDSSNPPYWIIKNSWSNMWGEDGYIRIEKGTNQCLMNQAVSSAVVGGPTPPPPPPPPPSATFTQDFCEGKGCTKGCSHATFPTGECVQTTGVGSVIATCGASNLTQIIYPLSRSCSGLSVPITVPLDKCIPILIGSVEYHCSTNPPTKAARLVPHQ

Rhodesain [2] = target: T1, Rhodesain (Trypanosoma brucei rhodesiense, UniProt Q95PM0); experiment: Competitive inhibition of Trypanosoma brucei rhodesain assessed as fluorescence using Cbz-Phe-Arg-AMC as substrate by fluorometric enzyme assays
T1 sequence (Q95PM0 whole entry): as the sequence (Q95PM0 1-450) above

[3] = target: Rhodesain (Trypanosoma brucei rhodesiense) (UniProt Q95PM0); experiment: Reversible inhibition of Trypanosoma brucei rhodesain assessed as reversibility using Cbz-Phe-Arg-AMC as substrate by dilution assay
[4] = system: Trypanosoma brucei brucei; experiment: Antiprotozoal activity against Trypanosoma brucei brucei BS449 assessed as luminescence incubated for 24 to 48 hrs by ATPlite assay; type: functional, organism-based
J774.1 = experiment: Cytotoxicity against mouse J774.1 cells by Alamar blue assay; type: functional
HeLa = experiment: Cytotoxicity against human HeLa cells by Alamar blue assay; type: functional
[5] = target: Proteasome Macropain subunit (Homo sapiens) (UniProt P49721); experiment: Inhibition of trypsin-like activity of human 20S proteasome at 11 uM using boc-Leu-Arg-Arg-AMC as fluorogenic substrate by microplate reader relative to control
Proteasome Macropain subunit (Homo sapiens), sequence (P49721 whole entry): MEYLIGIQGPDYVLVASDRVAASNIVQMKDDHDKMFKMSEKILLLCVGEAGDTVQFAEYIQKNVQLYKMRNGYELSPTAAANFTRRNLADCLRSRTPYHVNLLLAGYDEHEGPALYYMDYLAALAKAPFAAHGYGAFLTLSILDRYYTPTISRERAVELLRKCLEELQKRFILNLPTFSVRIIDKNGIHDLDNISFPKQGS

Homo sapiens [6] = organism: Homo sapiens; experiment: Inhibition of caspase-like activity of human 20S proteasome at 11 uM using Cbz-Leu-Leu-Glu-AMC as fluorogenic substrate by microplate reader relative to control
Homo sapiens [7] = organism: Homo sapiens; experiment: Inhibition of alpha-chymotrypsin-like activity of human 20S proteasome at 11 uM using Succ-Leu-Leu-Val-Tyr-AMC as fluorogenic substrate by microplate reader relative to control
Dengue virus = experiment: Inhibition of Dengue virus NS2B-NS3 protease assessed as fluorescent emission using boc-Gly-Arg-Arg-AMC at 11 uM by microplate reader relative to control
Rhodesain [8] = target: T1, Rhodesain; experiment: Inhibition of Trypanosoma brucei rhodesain assessed as fluorescence using Cbz-Phe-Arg-AMC as substrate measured at second inhibition step by fluorometric enzyme assays
Procathepsin L = Procathepsin L (Homo sapiens, UniProt P07711); experiment: Inhibition of human liver CatL assessed as fluorescence using Cbz-Phe-Arg-AMC as substrate measured at second inhibition step by fluorometric enzyme assays
Procathepsin L, sequence (P07711 whole entry): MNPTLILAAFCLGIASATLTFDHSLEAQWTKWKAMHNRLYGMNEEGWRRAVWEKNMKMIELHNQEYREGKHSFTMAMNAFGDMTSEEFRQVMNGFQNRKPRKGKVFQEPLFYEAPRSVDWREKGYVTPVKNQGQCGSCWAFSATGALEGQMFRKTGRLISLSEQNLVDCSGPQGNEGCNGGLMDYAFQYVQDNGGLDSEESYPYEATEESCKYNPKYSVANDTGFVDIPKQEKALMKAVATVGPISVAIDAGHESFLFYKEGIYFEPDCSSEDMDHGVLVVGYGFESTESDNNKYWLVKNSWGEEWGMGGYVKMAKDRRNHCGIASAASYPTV

[9] = system: cathepsin L (CatL) versus rhodesain; experiment: Selectivity index, ratio of Ki for human liver CatL to Trypanosoma brucei rhodesain; conditions: read-out: Selectivity Index
Cathepsin B = Cathepsin B (Homo sapiens, UniProt P07858); experiment: Inhibition of human liver CatB assessed as fluorescence using Cbz-Phe-Arg-AMC as substrate at 11 uM by fluorometric enzyme assays
[10] = target: Rhodesain (Trypanosoma brucei rhodesiense) (UniProt Q95PM0); experiment: Reversible inhibition of Trypanosoma brucei rhodesain assessed as reversibility by measuring residual enzymatic activity using Cbz-Phe-Arg-AMC as substrate after 1 hr by fluorometry based dialysis experiment relative to control
[11] = system: Trypanosoma brucei brucei; experiment: Antiprotozoal activity against Trypanosoma brucei brucei TC211 assessed as luminescence incubated for 24 to 48 hrs by ATPlite assay; type: functional, organism-based

| EC50 [4] [µM] | SMILES | Activity [1] | Ki (Rhodesain [2]) [µM] | Activity [3] | CC50 (J774.1) [µM] | CC50 (HeLa) [µM] | inhibition [5] | inhibition (Homo sapiens [6]) | inhibition (Homo sapiens [7]) | inhibition (Dengue virus) | Ki (Rhodesain [8]) [µM] | Ki (Procathepsin L) [µM] | selectivity ratio [9] | inhibition (Cathepsin B) [%] | Activity [10] [%] | EC50 [11] [µM] |
| --- | --- | --- | --- | --- | --- | --- | --- | --- | --- | --- | --- | --- | --- | --- | --- | --- |
| 3 | O=C(N[C@@H](Cc1ccccc1)C(=O)N[C@H](/C=C(\F)S(=O)(=O)c1ccccc1)CCc1ccccc1)c1ccncc1 | Active | 0.047 | Active | > 100 | > 100 | inactive | 41% | 10% | inactive | – | – | – | – | – | – |
| – | Cc1ccc(C[C@H](NC(=O)c2ccncc2)C(=O)N[C@H](/C=C(\F)S(=O)(=O)Cc2ccccc2)CCc2ccccc2)cc1 | Active | 0.025 | Active | – | > 100 | inactive | inactive | inactive | inactive | 0.015 | 0.181 | 12 | 35 | 47 | 1.4 |
